Data as given in US20220169639A1 (priority 2018, published 2022).

The compounds below were run on HBeAg (surrogate marker for cccDNA) in HepDES19 cells (assay: Engineered HepDES19 primary screen assay (HBeAg ELISA)). Details: Hepatitis B virus, 120 h, HBeAg in culture supernatant, 5 days incubation, read-out: IC50 (HepDES19 primary screen assay, inhibition of extracellular HBeAg level).
Assay type: cell-based, HBV
Source text: The assay was employed to screen for cccDNA inhibitors. HepDES19 is a cccDNA-producing cell line. In this cell line, HBeAg in the cell culture supernatant as surrogate marker, as HBeAg production depends on cccDNA level and activity. HepDES19 is an engineered cell line which contains a 1.1 unit length HBV genome, and pgRNA transcription from the transgene is controlled by Tetracycline (Tet). In the absence of Tet, pgRNA transcription will be induced, but HBV e antigen (HBeAg) could not be produced from this pgRNA due to very short leader sequence before the HBeAg start codon and the start codon is disrupted. Only after cccDNA is formed, the missing leader sequence and start codon mutation would be restored from the 3′-terminal redundancy of pgRNA, and then HBeAg could be synthesized. Therefore, HBeAg could be used as a surrogate marker for cccDNA (Zhou, T. et al., Antiviral Res. (2006), 72(2), 116-124; Guo, H. et al., J. Virol. (2007), 81(22), 12472-12484).
HepDES19 cells were seeded at 2×10^6 cells per T150 flask and cultured with the culture medium (Dulbecco's Modified Eagle Medium: Nutrient Mixture F-12 [DMEM-F12, Gibco Cat. 11320-82], 10% Fetal Bovine Serum [FBS, Clontech Cat. 631101], 0.1 mM Non-Essential Amino Acids Solution [NEAA, Gibco Cat. 11140-050], 50 μg/mL Penicillin-Streptomycin [PS, Invitrogen Cat. 15140-163], 500 μg/mL Geneticin [G418, Invitrogen Cat. 10131-027]) containing 3 μg/mL Tet (Sigma, Cat. 87128) for 5 days. Cells were then seeded at 4×10^6 cells per T150 in the same culture medium as described above in the absence of Tet for 8 days. Cells were then harvested and frozen at density of 2×10^6 cells per mL. For compound testing, the frozen cells were thawed and seeded into 96-well plates at a density of 6×10^4 cells per well. At 24 hours after seeding, half log serial dilutions of compounds made with Dimethyl sulfoxide (DMSO, Sigma, Cat. D2650) were further diluted with the same culture medium as described above before they were added to the cells to reach desired final compound concentrations and 1% DMSO concentration. Plates were then incubated at 37° C. for another 5 days before measurement of HBeAg level and cell viability. Intracellular HBeAg level were measured with enzyme-linked immunosorbent assay (ELISA) kit (Shanghai Kehua Diagnostic Medical Products Co., Ltd). Cell viability was assessed using Cell Counting Kit-8 (DonJindo, Cat. CK04-20). IC50 values were derived from the dose-response curve using 4 parameter logistic curve fit method.
The compounds of the present invention were tested for their capacity to inhibit extracellular HBeAg level as described herein.

Going from `O=c1cc(-c2ccc(C(F)(F)F)cc2OCCCN([C@H]2C[C@H](C(=O)O)C2)S(=O)(=O)c2ccccc2)oc2c(Cl)cccc12` [Example 142] to `O=C(O)CN(CCCOc1cc(C(F)(F)F)ccc1-c1cc(=O)c2cccc(Cl)c2o1)S(=O)(=O)C1CC1` [Example 145], the IC50 rises from 740 nM to 14300 nM (19-fold). The first is the more potent here.

Compared with `Cc1ccc(-c2cc(=O)c3cccc(Cl)c3o2)c(OCCNC(=O)C(=O)N2CC[C@H](O)C2)c1` [Example 150, N-[2-[2-(8-chloro-4-oxo-chromen-2-yl)-5-methyl-phenoxy]ethyl]-2-[(3S)-3-hydroxypyrrolidin-1-yl]-2-oxo-acetamide], `CCOC(=O)C(=O)NCCOc1cc(C)ccc1-c1cc(=O)c2cccc(Cl)c2o1` [Example 109, ethyl 2-[2-[2-(8-chloro-4-oxo-chromen-2-yl)-5-methyl-phenoxy]ethylamino]-2-oxo-acetate] is 3-fold lower in IC50: 12200 nM for the first, 4110 nM for the second. The second is the more potent here.

`Cc1ccc(-c2cc(=O)c3cccc(Cl)c3o2)c(OCCN2CCNC2=O)c1` [Example 091, 1-[2-[2-(8-chloro-4-oxo-chromen-2-yl)-5-methyl-phenoxy]ethyl]imidazolidin-2-one] and `Cc1ccc(-c2cc(=O)c3cccc(Cl)c3o2)c(OCCNC(C)(C)C(=O)O)c1` [Example 058, 2-[2-[2-(8-chloro-4-oxo-chromen-2-yl)-5-methyl-phenoxy]ethylamino]-2-methyl-propanoic acid] are within 1.5-fold of each other in IC50: 2830 nM for the first, 3410 nM for the second.

First: CC(C)[C@@H](NCCOc1cc(C(F)(F)F)ccc1-c1cc(=O)c2cccc(Cl)c2o1)C(=O)O [Example 036, (2R)-2-[2-[2-(8-chloro-4-oxo-chromen-2-yl)-5-(trifluoromethyl)phenoxy]ethylamino]-3-methyl-butanoic acid]
Second: CC(C)[C@H](NCCOc1cc(C(F)(F)F)ccc1-c1cc(=O)c2cccc(Cl)c2o1)C(=O)O [Example 037, (2S)-2-[2-[2-(8-chloro-4-oxo-chromen-2-yl)-5-(trifluoromethyl)phenoxy]ethylamino]-3-methyl-butanoic acid]
The IC50 of the first is 2-fold lower: 2030 nM for the first, 4120 nM for the second.

First: CS(=O)(=O)NC(=O)[C@H]1CCN(CCOc2cc(Br)ccc2-c2cc(=O)c3cccc(Cl)c3o2)C1 [Example 069]
Second: NC(=O)C1CCN(CCOc2cc(Br)ccc2-c2cc(=O)c3cccc(Cl)c3o2)C1 (stereo not shown) [Example 083, 1-[2-[5-bromo-2-(8-chloro-4-oxo-chromen-2-yl)phenoxy]ethyl]pyrrolidine-3-carboxamide]
The IC50 of the first is 3.2-fold higher: 1770 nM for the first, 560 nM for the second.

Going from `O=C(O)C1CCN(CCOc2ccccc2-c2cc(=O)c3cccc(Cl)c3o2)C1` (stereo not shown) [Example 031, 1-[2-[2-(8-chloro-4-oxo-chromen-2-yl)phenoxy]ethyl]pyrrolidine-3-carboxylic acid] to `O=C(O)C1CCN(CCOc2ccccc2-c2cc(=O)c3cc(F)cc(Cl)c3o2)C1` (stereo not shown) [Example 043, 1-[2-[2-(8-chloro-6-fluoro-4-oxo-chromen-2-yl)phenoxy]ethyl]pyrrolidine-3-carboxylic acid], the IC50 rises from 170 nM to 1420 nM (8.4-fold). The first is the more potent here.

`NC(=O)C1CSCCN1CCOc1cc(Br)ccc1-c1cc(=O)c2cccc(Cl)c2o1` (stereo not shown) [Example 085, 4-[2-[5-bromo-2-(8-chloro-4-oxo-chromen-2-yl)phenoxy]ethyl]thiomorpholine-3-carboxamide] and `O=C(O)C1CC(=O)N(CCCOc2cc(Br)ccc2-c2cc(=O)c3cccc(Cl)c3o2)C1` (stereo not shown) [Example 169, 1-[3-[5-bromo-2-(8-chloro-4-oxo-chromen-2-yl)phenoxy]propyl]-5-oxo-pyrrolidine-3-carboxylic acid] are within 1.5-fold of each other in IC50: 1080 nM for the first, 990 nM for the second.

Compared with `O=C(O)C(=O)N1CCN(CCOc2cc(C(F)(F)F)ccc2-c2cc(=O)c3cccc(Cl)c3o2)C1=O` [Example 162, 2-[3-[2-[2-(8-chloro-4-oxo-chromen-2-yl)-5-(trifluoromethyl)phenoxy]ethyl]-2-oxo-imidazolidin-1-yl]-2-oxo-acetic acid], `O=C(O)[C@H]1CCN(CCOc2cc(C(F)(F)F)ccc2-c2cc(=O)c3cccc(Cl)c3o2)C1` [Example 034, (3S)-1-[2-[2-(8-chloro-4-oxo-chromen-2-yl)-5-(trifluoromethyl)phenoxy]ethyl]pyrrolidine-3-carboxylic acid] is 14-fold higher in IC50: 80 nM for the first, 1120 nM for the second. The first is the more potent here.

Compared with `Cc1ccc(-c2cc(=O)c3cccc(Cl)c3o2)c(OCCNC(=O)N[C@@H](C)C(=O)O)c1` [Example 151, (2S)-2-[2-[2-(8-chloro-4-oxo-chromen-2-yl)-5-methyl-phenoxy]ethylcarbamoylamino]propanoic acid], `COc1ccc(-c2cc(=O)c3cccc(Cl)c3o2)c(OCCNC(=O)C(N)=O)c1` [Example 147, N′-[2-[2-(8-chloro-4-oxo-chromen-2-yl)-5-methoxy-phenoxy]ethyl]oxamide] is 1.9-fold higher in IC50: 630 nM for the first, 1200 nM for the second. The first is the more potent here.

Going from `O=C(O)CC1CCN(CCCOc2cc(C(F)(F)F)ccc2-c2cc(=O)c3cccc(Cl)c3o2)C1` (stereo not shown) [Example 008, 2-[1-[3-[2-(8-chloro-4-oxo-chromen-2-yl)-5-(trifluoromethyl)phenoxy]propyl]pyrrolidin-3-yl]acetic acid] to `O=C(O)C1CCN(CCCOc2cc(C(F)(F)F)ccc2-c2cc(=O)c3cccc(Cl)c3o2)C1` (stereo not shown) [Example 012, 1-[3-[2-(8-chloro-4-oxo-chromen-2-yl)-5-(trifluoromethyl)phenoxy]propyl]pyrrolidine-3-carboxylic acid], the IC50 falls from 170 nM to 110 nM (1.5-fold). The second is the more potent here.

Compared with `O=C(O)CN(CCCOc1cc(C(F)(F)F)ccc1-c1cc(=O)c2cccc(Cl)c2o1)CC(=O)O` [Example 140], `CC(=O)N(CCCOc1cc(C(F)(F)F)ccc1-c1cc(=O)c2cccc(Cl)c2o1)CC(=O)O` [Example 144] is 60-fold higher in IC50: 190 nM for the first, 11400 nM for the second. The first is the more potent here.

Compared with `O=C(O)C(=O)NCC1(COc2cc(C(F)(F)F)ccc2-c2cc(=O)c3cccc(Cl)c3o2)COC1` [Example 010, 2-[[3-[[2-(8-chloro-4-oxo-chromen-2-yl)-5-(trifluoromethyl)phenoxy]methyl]oxetan-3-yl]methylamino]-2-oxo-acetic acid], `O=C(O)CNCCOc1cc(C(F)(F)F)ccc1-c1cc(=O)c2cccc(Cl)c2o1` [Example 123] is 23-fold higher in IC50: 220 nM for the first, 5110 nM for the second.

First: CC(CC(=O)O)NCCCOc1cc(C(F)(F)F)ccc1-c1cc(=O)c2cccc(Cl)c2o1 (stereo not shown) [Example 062, 3-[3-[2-(8-chloro-4-oxo-chromen-2-yl)-5-(trifluoromethyl)phenoxy]propylamino]butanoic acid]
Second: O=C(O)CCNCCOc1cc(C(F)(F)F)ccc1-c1cc(=O)c2cccc(Cl)c2o1 [Example 124]
The IC50 of the first is 2.9-fold lower: 2020 nM for the first, 5880 nM for the second.

First: O=C(O)[C@H]1CCN(CC(O)COc2cc(C(F)(F)F)ccc2-c2cc(=O)c3cccc(Cl)c3o2)C1 (stereo partly drawn) [Example 163, (3S)-1-[3-[2-(8-chloro-4-oxo-chromen-2-yl)-5-(trifluoromethyl)phenoxy]-2-hydroxy-propyl]pyrrolidine-3-carboxylic acid]
Second: O=C(O)C(=O)N1CC[C@@H](Oc2cc(C(F)(F)F)ccc2-c2cc(=O)c3cccc(Cl)c3o2)C1 [Example 130]
The IC50 of the first is 1.7-fold lower: 2760 nM for the first, 4820 nM for the second. The first is the more potent here.

`CC(C)(C)CC(NCCCOc1cc(C(F)(F)F)ccc1-c1cc(=O)c2cccc(Cl)c2o1)C(=O)O` (stereo not shown) [Example 011, 2-[3-[2-(8-chloro-4-oxo-chromen-2-yl)-5-(trifluoromethyl)phenoxy]propylamino]-4,4-dimethyl-pentanoic acid] and `O=C(O)C(=O)N1CCC(Oc2cc(C(F)(F)F)ccc2-c2cc(=O)c3cccc(Cl)c3o2)CC1` [Example 129] are within 1.5-fold of each other in IC50: 3610 nM for the first, 4750 nM for the second.

Going from `O=c1cc(-c2ccc(Br)cc2OCCOCCN2CCOCC2)oc2c(Cl)cccc12` [Example 090, 2-[4-bromo-2-[2-(2-morpholinoethoxy)ethoxy]phenyl]-8-chloro-chromen-4-one] to `O=C(O)C12CC(NCCOc3cc(Br)ccc3-c3cc(=O)c4cccc(Cl)c4o3)(C1)C2` [Example 026, 3-[2-[5-bromo-2-(8-chloro-4-oxo-chromen-2-yl)phenoxy]ethylamino]bicyclo[1.1.1]pentane-1-carboxylic acid], the IC50 falls from 1300 nM to 460 nM (2.8-fold).

First: CCOC(=O)C(=O)N(C)CCOc1cc(C)ccc1-c1cc(=O)c2cccc(Cl)c2o1 [Example 137, ethyl 2-[2-[2-(8-chloro-4-oxo-chromen-2-yl)-5-methyl-phenoxy]ethyl-methyl-amino]-2-oxo-acetate]
Second: COc1ccc2oc(-c3ccccc3OC)cc(=O)c2c1 [Example F-2, 6-methoxy-2-(2-methoxyphenyl)chromen-4-one, reference compound]
The IC50 of the first is lower: 3400 nM for the first, greater than 50000 nM for the second.
